Data on six compounds can be found in US12338199B2, “Bis-octahydrophenanthrene carboxamides and protein conjugates thereof” (REGENERON PHARMACEUTICALS, INC., priority 2017, dated 2025).

Experiment [1] concerns THP1/LXR-Luc cells. Kind of experiment: LXR-luciferase reporter bioassay in PMA-differentiated THP1/LXR-Luc cells. It is filed as cell-based, human. To be noted: for EC50: Homo sapiens, THP-1, 48 h, read-out: EC50; for S/N (signal to noise, ratio of RLU of standard one over RLU of standard eight): luciferase activity. An excerpt: To test the efficacy of anti-MSR1 antibody-LXR conjugates in vitro, a cell-based LXR responsive luciferase reporter assay was developed. To generate the assay cell line, a LXR regulated luciferase reporter gene [Cignal Lenti LXR Reporter (luc) kit (Qiagen, Cat # CLS-001L)] was transduced into THP1 cells, and cells were selected for two weeks in puromycin. The lentivirus expresses the firefly luciferase gene under the control of a minimal CMV promoter and tandem repeats of the LXR transcriptional response element. The resulting cell line is referred to as THP1/LXR-Luc cells.
THP1/LXR-Luc cells were seeded onto 96 well plates at 40,000 cells/well in media containing RPMI supplemented with 10% FBS and pencillin/streptomycin and subsequently differentiated with 200 nM Phorbol Myristate Acetate (PMA) for 3 days. After the 3-day differentiation period, three-fold serial dilutions of antibody drug conjugates, unconjugated antibodies, or free payloads in fresh media were added to the cells at final concentration ranging from 100 nM to 0.01 nM. Media alone served as a blank control. Forty-eight hours later, luciferase activity was determined after the addition of One-Glo™ reagent (Promega, Cat # E6130) to each well. Relative light units (RLUs) were measured on a Victor luminometer (PerkinElmer) and EC50 values were determined using a four-parameter logistic equation over a 10-point dose response curve (GraphPad Prism). The signal to noise (S/N) was determined by calculating the ratio of RLU of standard one over RLU of standard eight for each of the unconjugated anti-MSR1 antibodies or free payloads. “LP #” represents a linker-payload for which the corresponding structures are provided elsewhere herein, and “P #” represents a payload for which the corresponding structures are provided elsewhere herein.

Experiment [2] has as its target T1, LXR alpha (Homo sapiens, UniProt Q13133).
T1 construct: LXR alpha or beta LBD-GST; purchased ThermoFisher PV4655
T1 sequence (Q13133 209-447 limits assumed): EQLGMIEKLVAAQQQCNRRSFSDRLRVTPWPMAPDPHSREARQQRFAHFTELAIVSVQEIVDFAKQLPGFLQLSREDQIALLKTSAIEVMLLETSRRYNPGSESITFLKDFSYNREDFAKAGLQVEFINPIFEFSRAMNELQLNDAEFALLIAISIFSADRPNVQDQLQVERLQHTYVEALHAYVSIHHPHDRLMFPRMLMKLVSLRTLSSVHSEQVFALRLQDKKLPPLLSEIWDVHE
The experiment in a line: LanthaScreen TR-FRET LXR alpha Coactivator Assay (cell-free binding). To be noted: TR-FRET, 12-point curve; read-out: Cell free binding LXRα IC50. The procedure:
(§1) To evaluate the ability of novel LXR agonists to bind to the LXR alpha and beta receptor, a cell-free binding assay was performed using a LanthaScreen TR-FRET LXR alpha Coactivator Assay Kit (ThermoFisher, Cat # PV4655) and LXR beta Coactivator Assay Kit (ThermoFisher, Cat # PV4658). The assay was performed according to the manufacturer's instructions. Briefly, a 3-fold serial dilution of LXR agonists were prepared in 100% DMSO starting at 100 μM (100× of final). Serial dilutions were further diluted 50-fold in nuclear receptor buffer F with 5 mM DTT, and transferred to a 384-well assay plate. Next, Fluorescein-D22, LXR alpha or beta LBD-GST, and Tb anti-GST antibody was sequentially added to 384-well assay plate. The plate was then incubated at rt for 2.5 hours while being protected from light. […] The IC50 values were determined using a four-parameter logistic equation over a 12-point response curve (GraphPad Prism).
(In general: Time-resolved FRET reads energy transfer from a long-lived donor to a nearby acceptor.)

Experiment [3] concerns THP1/LXR-Luc cells. Kind of experiment: THP1/LXR-Luc luciferase reporter bioassay. It is filed as cell-based. To be noted: Homo sapiens, THP-1, 48 hours; for EC50: read-out: Activation of THP1/LXR-Luc cells: EC50; for Emax: relative to maximum activation of free payload 9d, read-out: Activation of THP1/LXR-Luc cells: Fold of activation. An excerpt: The fold activation in the cell-based assays (as described in Example 68, below) was defined based on the maximum activation of the free payload 9d.
A bioassay was developed to assess the activity of LXR agonists after internalization of an agonist or of a ncADC into cells and binding to LXR, a nuclear receptor, using a commercially available LXR reporter (referred to as LXR-Luc) that contains the firefly luciferase gene under control by minimal CMV promoter and tandem repeats of the LXR transcriptional response element. For this assay, a THP1 cell line, which is a human monocytic leukaemia line, was engineered to express full length human Her2 (expressing amino acids M1 through V1255 of accession number NP_004439.2). The subsequent stable cell line was further transduced with a Cignal LXR Luc Reporter (Qiagen, Cat # CLS-7041L). The resulting stable cell line is referred to herein as THP1/Her2/LXR-Luc. The Her2 cell surface expression on THP1/Her2/LXR-Luc cell line was confirmed by FACS (data not shown).
Additionally, a THP1 cell line was transduced with a Cignal LXR Luc Reporter (Qiagen, Cat # CLS-7041L) without the addition of Her2. The resulting stable cell line is referred to herein as THP1/LXR-Luc. All of the antibodies used in the subsequent bioassays were assessed for their ability to internalize and release a payload on the bioassay cell line used.
This example assessed the ability of the LXR agonists provided herein, reference compounds, and anti-Her2 antibody-LXR ncADC to activate LXR. The samples were tested in the THP1/LXR-Luc/Her2 bioassay. For the assay, either THP1/LXR-Luc cells or THP1/LXR-Luc/Her2 cells were seeded onto white 96 well plates at 30,000 cells/well in media containing RPMI supplemented with 10% FBS and pencillin/streptomycin (complete media). Subsequently 3-fold serial dilutions of antibody drug conjugates, unconjugated antibodies, or free payloads were added to the cells at final concentration ranging from 100 nM to 0.01 nM. After 48-hour or 72-hour incubation, luciferase activity was determined after the addition of One-Glo™ reagent (Promega, Cat # E6130) to each well of cells. Relative light units (RLUs) were measured on a Victor luminometer (PerkinElmer) and the EC5o values were determined using a four-parameter logistic equation over a 10-point dose response curve (GraphPad Prism) (FIG. 15). The fold activation is calculated based on the maximum activation of the free payload 9d.

Experiment [4] deals with T2, LXR beta (Homo sapiens, UniProt P55055).
T2 construct: LXR alpha or beta LBD-GST; purchased ThermoFisher PV4658
T2 sequence (P55055 222-460 limits assumed): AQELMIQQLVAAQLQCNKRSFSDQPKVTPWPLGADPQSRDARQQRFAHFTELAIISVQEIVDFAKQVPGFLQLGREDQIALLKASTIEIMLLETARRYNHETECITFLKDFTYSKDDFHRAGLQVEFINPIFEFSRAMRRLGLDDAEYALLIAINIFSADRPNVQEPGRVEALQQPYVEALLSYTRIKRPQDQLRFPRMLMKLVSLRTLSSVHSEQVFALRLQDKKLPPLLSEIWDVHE
The experiment in a line: LanthaScreen TR-FRET LXR beta Coactivator Assay (cell-free binding). Conditions: TR-FRET, 12-point curve; read-out: Cell free binding LXRβ IC50. The procedure:
as §1

Where [5] appears, read: 48-hour time point, stimulation of THP1/Luc cells.
Setting [6] is: PMA-differentiated THP1/LXR-Luc cells, 48 hours, luciferase activity (One-Glo), 10-point dose response 100 nM to 0.01 nM.
Setting [7] is: PMA-differentiated THP1/LXR-Luc cells, 48 hours.

Each structure is given as a SMILES string. Where a name gives a salt, the structure may show the parent alone.

Turning to `C[C@]1(C(=O)NC(=O)[C@@]2(C)CCC[C@]3(C)c4cc(NC(=O)[C@@H](N)CCCCN)ccc4CC[C@@H]23)CCC[C@]2(C)c3cc(O)ccc3CC[C@@H]12` [Compound 9l, (1S,4aS,10aR)—N-[(1S,4aS,10aR)-6-Hydroxy-1,4a-dimethyl-1,2,3,4,4a,9,10,10a-octahydrophenanthrene-1-carbonyl]-6-[(2S)-2,6-diaminohexanamido]-1,4a-dimethyl-1,2,3,4,4a,9,10,10a-octahydrophenanthrene-1-carboxamide; Trifluoroacetic Acid Salt], the EC50 in experiment [1] (setting [5]) is 0.37 to 2.09 nM; in experiment [1] (setting [6]), 2.09 nM; in experiment [3], 1 to 10 nM. For the same compound, the “S/N (signal to noise, ratio of RLU of standard one over RLU of standard eight)” value in experiment [1] (setting [7]) stood at 8.9. In addition, the IC50 in experiment [2] and in experiment [4] was 10 to 100 nM throughout. The Emax in experiment [3] is greater than 75%.
For `C[C@]1(C(=O)NC(=O)[C@@]2(C)CCC[C@]3(C)c4cc(NC(=O)[C@@H](N)CC(=O)O)ccc4CC[C@@H]23)CCC[C@]2(C)c3cc(O)ccc3CC[C@@H]12` [Compound 9n, (3S)-3-Amino-3-{[(4bS,8S,8aR)-8-{[(1S,4aS,10aR)-6-hydroxy-1,4a-dimethyl-1,2,3,4,4a,9,10,10a-octahydrophenanthrene-1-carbonyl]carbamoyl}-4b,8-dimethyl-4b,5,6,7,8,8a,9,10-octahydrophenanthren-3-yl]carbamoyl}propanoic Acid], the IC50 in experiment [2] was 10 to 100 nM; in experiment [4] it was less than 10 nM. Also, the EC50 in experiment [3] is no more than 1 nM. The Emax in experiment [3] was greater than 75%.
For `C[C@]1(C(=O)NC(=O)[C@@]2(C)CCC[C@]3(C)c4cc(OCCO)ccc4CC[C@@H]23)CCC[C@]2(C)c3cc(O)ccc3CC[C@@H]12` [Compound 9b, (1S,4aS,10aR)-6-Hydroxy-N-((1S,4aS,10aR)-6-(2-hydroxyethoxy)-1,4a-dimethyl-1,2,3,4,4a,9,10,10a-octahydrophenanthrene-1-carbonyl)-1,4a-dimethyl-1,2,3,4,4a,9,10,10a-octahydrophenanthrene-1-carboxamide], in experiment [2], the 50% inhibitory concentration (IC50) is less than 10 nM. Also, in experiment [3], the EC50 fell in the range of 1 to 10 nM and the Emax was greater than 75%. Besides, in experiment [4], the concentration for half-maximal inhibition (IC50) is less than 10 nM.
Take `C[C@]1(C(=O)NC(=O)[C@@]2(C)CCC[C@]3(C)c4cc(NC(=O)[C@@H](N)CCC(=O)O)ccc4CC[C@@H]23)CCC[C@]2(C)c3cc(O)ccc3CC[C@@H]12` [Compound 9o, (4S)-4-Amino-4-{[(4bS,8S,8aR)-8-{[(1S,4aS,10aR)-6-hydroxy-1,4a-dimethyl-1,2,3,4,4a,9,10,10a-octahydrophenanthrene-1-carbonyl]carbamoyl}-4b,8-dimethyl-4b,5,6,7,8,8a,9,10-octahydrophenanthren-3-yl]carbamoyl}butanoic acid; Trifluoroacetic Acid Salt]: the EC50 in experiment [1] (setting [5]) was 0.37 to 2.09 nM; in experiment [1] (setting [6]), 0.37 nM; in experiment [3], no more than 1 nM. The “S/N (signal to noise, ratio of RLU of standard one over RLU of standard eight)” value in experiment [1] (setting [7]) worked out at 8.3. The half-maximal inhibitory concentration (IC50) in experiment [2] is 10 to 100 nM; in experiment [4], less than 10 nM. For the same compound, in experiment [3], the Emax was greater than 75%.
On to `C[C@]1(C(=O)NC(=O)[C@@]2(C)CCC[C@]3(C)c4cc(NC(=O)[C@@H](N)Cc5c[nH]cn5)ccc4CC[C@@H]23)CCC[C@]2(C)c3cc(O)ccc3CC[C@@H]12` [Compound 9m, (1S,4aS,10aR)—N-[(1S,4aS,10aR)-6-Hydroxy-1,4a-dimethyl-1,2,3,4,4a,9,10,10a-octahydrophenanthrene-1-carbonyl]-6-[(2S)-2-amino-3-(1H-imidazol-4-yl)propanamido]-1,4a-dimethyl-1,2,3,4,4a,9,10,10a-octahydrophenanthrene-1-carboxamide; trifluoroacetic acid salt], for which the IC50 in experiment [2] is 10 to 100 nM; in experiment [4], less than 10 nM. For the same compound, the EC50 in experiment [3] was in the range of 1 to 10 nM. Besides, the Emax in experiment [3] was greater than 75%.
Consider `CN(C)c1ccc2c(c1)[C@@]1(C)CCC[C@](C)(C(=O)NC(=O)[C@@]3(C)CCC[C@]4(C)c5cc(O)ccc5CC[C@@H]34)[C@@H]1CC2` [Compound 9f, (1S,4aS,10aR)-6-(Dimethylamino)-N-((1S,4aS,10aR)-6-hydroxy-1,4a-dimethyl-1,2,3,4,4a,9,10,10a-octahydrophenanthrene-1-carbonyl)-1,4a-dimethyl-1,2,3,4,4a,9,10,10a-octahydrophenanthrene-1-carboxamide], for which the IC50 in experiment [2] and in experiment [4] was less than 10 nM each time. Moreover, the EC50 in experiment [3] was in the range of 1 to 10 nM. In experiment [3], the Emax is greater than 75%.

The IC50 is the concentration needed to halve the response being measured.
